How the values were obtained:
Assay type in all cases: biochemical
AXL = molecular target: T1, AXL (Homo sapiens, UniProt P30530); assay: Kinome profiling AXL; conditions: read-out: Inhibitory activity AXL; for inhibition at 0.1 µM: 100 nM
T1 sequence (P30530 26-894): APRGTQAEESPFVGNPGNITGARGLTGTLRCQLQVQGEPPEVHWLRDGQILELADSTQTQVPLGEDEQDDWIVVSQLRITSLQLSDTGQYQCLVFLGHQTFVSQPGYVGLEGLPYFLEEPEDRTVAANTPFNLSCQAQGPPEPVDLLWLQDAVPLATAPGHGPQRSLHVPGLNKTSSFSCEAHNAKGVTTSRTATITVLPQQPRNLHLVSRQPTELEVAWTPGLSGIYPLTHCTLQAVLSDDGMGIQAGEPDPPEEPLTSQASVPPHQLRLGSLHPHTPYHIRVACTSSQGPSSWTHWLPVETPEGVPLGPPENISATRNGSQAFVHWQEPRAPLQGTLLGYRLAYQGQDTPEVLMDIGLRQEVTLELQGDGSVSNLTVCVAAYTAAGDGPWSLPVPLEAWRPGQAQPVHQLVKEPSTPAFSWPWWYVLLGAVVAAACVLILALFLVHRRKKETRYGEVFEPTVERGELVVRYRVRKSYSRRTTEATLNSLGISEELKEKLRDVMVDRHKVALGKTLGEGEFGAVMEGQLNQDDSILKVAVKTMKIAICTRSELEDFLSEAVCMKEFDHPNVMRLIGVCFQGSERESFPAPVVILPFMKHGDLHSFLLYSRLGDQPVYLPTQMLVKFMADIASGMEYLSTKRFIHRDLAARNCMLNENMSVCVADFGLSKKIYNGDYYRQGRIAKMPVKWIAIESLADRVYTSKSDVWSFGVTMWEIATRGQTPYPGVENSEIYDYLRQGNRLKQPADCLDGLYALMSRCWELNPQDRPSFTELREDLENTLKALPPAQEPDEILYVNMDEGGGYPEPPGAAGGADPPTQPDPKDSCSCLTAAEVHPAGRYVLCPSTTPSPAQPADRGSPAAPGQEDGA
Description: (§1) . The kinome-wide selectivity was determined following the methods previously reported by Mohedas et al., ACS Chem Biol 2013, 8, 1291-1302 and Sanvitale et al., PLoS One 2013, 8, e62721.

IRAK4 = molecular target: T2, IRAK4 (Homo sapiens, UniProt Q9NWZ3); assay: Kinome profiling IRAK4; conditions: read-out: Inhibitory activity IRAK4; for inhibition at 0.1 µM: 100 nM
T2 sequence (Q9NWZ3 1-460): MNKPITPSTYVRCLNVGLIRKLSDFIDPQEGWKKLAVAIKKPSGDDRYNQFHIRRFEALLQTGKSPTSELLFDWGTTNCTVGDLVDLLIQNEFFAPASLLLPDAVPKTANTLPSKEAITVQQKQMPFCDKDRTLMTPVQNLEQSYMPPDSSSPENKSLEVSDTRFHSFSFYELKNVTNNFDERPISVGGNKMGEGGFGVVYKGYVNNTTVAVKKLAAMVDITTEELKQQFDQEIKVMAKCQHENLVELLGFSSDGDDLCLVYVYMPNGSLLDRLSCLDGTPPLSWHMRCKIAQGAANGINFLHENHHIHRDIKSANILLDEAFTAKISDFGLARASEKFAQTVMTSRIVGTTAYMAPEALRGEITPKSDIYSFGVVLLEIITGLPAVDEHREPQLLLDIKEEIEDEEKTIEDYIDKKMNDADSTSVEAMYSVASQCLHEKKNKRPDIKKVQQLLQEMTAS
Description: as §1

CDK6/cyclinD3 = CDK6/cyclinD3 (Homo sapiens, UniProt Q00534); assay: Kinome profiling CDK6/cyclinD3; conditions: read-out: Inhibitory activity CDK6/cyclinD3; for inhibition at 0.1 µM: 100 nM
Description: as §1

BRSK2 = molecular target: T3, BRSK2 (Homo sapiens, UniProt Q8IWQ3); assay: Kinome profiling BRSK2; conditions: read-out: Inhibitory activity BRSK2; for inhibition at 0.1 µM: 100 nM
T3 sequence (Q8IWQ3 1-736): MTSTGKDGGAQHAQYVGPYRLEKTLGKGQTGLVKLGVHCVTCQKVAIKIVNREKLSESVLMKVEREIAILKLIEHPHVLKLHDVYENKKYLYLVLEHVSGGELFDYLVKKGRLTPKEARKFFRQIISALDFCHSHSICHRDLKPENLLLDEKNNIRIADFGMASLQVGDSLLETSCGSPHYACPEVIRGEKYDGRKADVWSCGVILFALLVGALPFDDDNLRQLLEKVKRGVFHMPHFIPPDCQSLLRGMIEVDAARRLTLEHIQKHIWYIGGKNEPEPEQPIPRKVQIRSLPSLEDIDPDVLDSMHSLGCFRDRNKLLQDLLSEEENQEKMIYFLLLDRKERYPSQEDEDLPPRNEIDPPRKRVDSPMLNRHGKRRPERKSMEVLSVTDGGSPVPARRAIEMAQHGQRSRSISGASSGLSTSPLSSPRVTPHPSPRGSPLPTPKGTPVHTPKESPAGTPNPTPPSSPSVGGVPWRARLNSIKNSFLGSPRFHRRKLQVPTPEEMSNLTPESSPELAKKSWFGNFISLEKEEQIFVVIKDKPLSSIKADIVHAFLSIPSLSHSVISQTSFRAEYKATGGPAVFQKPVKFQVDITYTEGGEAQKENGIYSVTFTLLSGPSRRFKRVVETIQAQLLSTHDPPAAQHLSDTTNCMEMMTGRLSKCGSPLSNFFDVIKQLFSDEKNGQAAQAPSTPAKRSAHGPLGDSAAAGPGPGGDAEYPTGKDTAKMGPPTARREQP
Description: as §1

RET = RET (Homo sapiens, UniProt P07949); assay: Kinome profiling RET; conditions: read-out: Inhibitory activity RET; for inhibition at 0.1 µM: 100 nM
Description: as §1

Sequence of CDK6/cyclinD3 (Q00534 whole entry): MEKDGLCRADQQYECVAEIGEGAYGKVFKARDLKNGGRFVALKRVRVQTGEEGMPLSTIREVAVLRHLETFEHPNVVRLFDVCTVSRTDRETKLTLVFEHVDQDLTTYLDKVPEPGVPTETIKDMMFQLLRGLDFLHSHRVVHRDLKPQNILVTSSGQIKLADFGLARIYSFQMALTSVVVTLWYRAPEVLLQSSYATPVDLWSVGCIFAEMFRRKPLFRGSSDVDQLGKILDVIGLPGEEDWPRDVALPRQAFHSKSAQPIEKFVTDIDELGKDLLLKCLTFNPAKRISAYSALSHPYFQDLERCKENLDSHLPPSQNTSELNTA
Sequence of CDK6/cyclinD3 (P30281 whole entry partner): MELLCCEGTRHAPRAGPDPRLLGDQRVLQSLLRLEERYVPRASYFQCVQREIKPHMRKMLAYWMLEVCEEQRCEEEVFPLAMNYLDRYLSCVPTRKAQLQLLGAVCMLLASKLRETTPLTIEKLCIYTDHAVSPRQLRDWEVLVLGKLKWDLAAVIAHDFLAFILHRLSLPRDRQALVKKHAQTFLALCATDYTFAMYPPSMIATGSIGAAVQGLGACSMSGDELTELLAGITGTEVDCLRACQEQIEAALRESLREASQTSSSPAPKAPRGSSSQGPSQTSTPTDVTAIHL
Sequence of RET (P07949 29-1114): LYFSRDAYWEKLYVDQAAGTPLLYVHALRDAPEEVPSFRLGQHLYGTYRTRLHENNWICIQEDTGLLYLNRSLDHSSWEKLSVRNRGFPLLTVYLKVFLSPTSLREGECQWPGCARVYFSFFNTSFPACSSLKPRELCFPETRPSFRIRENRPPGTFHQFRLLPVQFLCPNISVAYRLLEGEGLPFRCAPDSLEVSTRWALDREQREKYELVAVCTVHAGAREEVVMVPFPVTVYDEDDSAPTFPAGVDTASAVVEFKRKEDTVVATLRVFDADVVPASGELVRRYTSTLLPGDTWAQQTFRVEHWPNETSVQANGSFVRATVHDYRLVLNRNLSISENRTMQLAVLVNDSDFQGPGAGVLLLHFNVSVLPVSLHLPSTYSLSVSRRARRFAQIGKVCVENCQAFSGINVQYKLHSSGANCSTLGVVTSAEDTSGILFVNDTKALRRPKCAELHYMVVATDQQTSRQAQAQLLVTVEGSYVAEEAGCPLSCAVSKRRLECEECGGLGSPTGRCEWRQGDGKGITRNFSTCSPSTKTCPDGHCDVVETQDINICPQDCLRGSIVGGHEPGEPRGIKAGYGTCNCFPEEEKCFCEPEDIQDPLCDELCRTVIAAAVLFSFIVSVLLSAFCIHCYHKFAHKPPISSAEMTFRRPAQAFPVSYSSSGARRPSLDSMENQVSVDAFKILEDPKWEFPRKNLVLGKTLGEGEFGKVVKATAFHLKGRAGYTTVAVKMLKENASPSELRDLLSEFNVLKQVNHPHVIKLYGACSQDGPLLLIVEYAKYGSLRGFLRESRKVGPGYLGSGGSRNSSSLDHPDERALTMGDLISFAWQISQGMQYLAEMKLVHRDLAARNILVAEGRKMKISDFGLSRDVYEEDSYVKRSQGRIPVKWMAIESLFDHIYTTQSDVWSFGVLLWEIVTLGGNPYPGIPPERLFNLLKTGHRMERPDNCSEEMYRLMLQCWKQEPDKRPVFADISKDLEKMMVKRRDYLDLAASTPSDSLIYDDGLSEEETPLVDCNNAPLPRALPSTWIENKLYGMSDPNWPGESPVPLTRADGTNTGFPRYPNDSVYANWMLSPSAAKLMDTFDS

Compound	inhibition at 0.1 µM (AXL) [%]	inhibition at 1 µM (AXL) [%]	inhibition at 0.1 µM (IRAK4) [%]	inhibition at 1 µM (IRAK4) [%]	inhibition at 0.1 µM (CDK6/cyclinD3) [%]	inhibition at 1 µM (CDK6/cyclinD3) [%]	inhibition at 0.1 µM (BRSK2) [%]	inhibition at 1 µM (BRSK2) [%]	inhibition at 0.1 µM (RET) [%]	inhibition at 1 µM (RET) [%]
COc1cc(-c2cc(-c3ccc(N4CCNCC4)cc3)cnc2C)cc(OC)c1OC [Compound 10, 1-(4-(6-methyl-5-(3,4,5-trimethoxyphenyl)pyridin-3-yl)phenyl)piperazine]	1	7	0	1	3	1	2	1	2	2
COc1cc(-c2cc(-c3ccc(N4CCNCC4)cc3)cnc2N)cc(OC)c1OC [Compound 15, 5-(4-(piperazin-1-yl)phenyl)-3-(3,4,5-trimethoxyphenyl)pyridin-2-amine]	-4	-1	1	2	3	6	1	2	8	8
